Data reported in paper PMC7042063 (Chembiochem : a European journal of chemical biology, 2019).

Legend:
Type in all cases: biochemical
UCHL3 [1] = target: T1, UCHL3 (Homo sapiens, UniProt P15374); test: Ub-Rho cleavage assay, purified enzyme, […] min preincubation
T1 sequence (P15374 1-230): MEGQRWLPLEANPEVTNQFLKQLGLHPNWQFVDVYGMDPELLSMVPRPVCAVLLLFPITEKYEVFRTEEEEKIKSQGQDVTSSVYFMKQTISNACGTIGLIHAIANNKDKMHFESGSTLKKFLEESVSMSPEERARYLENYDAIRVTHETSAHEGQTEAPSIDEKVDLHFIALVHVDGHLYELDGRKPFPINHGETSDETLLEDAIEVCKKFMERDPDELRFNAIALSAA

UCHL3 [2] = target: T1, UCHL3; test: Ub-Rho cleavage assay, purified enzyme
[3] = target: T2, Ubiquitin C-terminal Hydrolase L1 (UCHL1) (Homo sapiens, UniProt P09936); test: inhibition IC50 of UCHL1
T2 sequence (P09936 1-220): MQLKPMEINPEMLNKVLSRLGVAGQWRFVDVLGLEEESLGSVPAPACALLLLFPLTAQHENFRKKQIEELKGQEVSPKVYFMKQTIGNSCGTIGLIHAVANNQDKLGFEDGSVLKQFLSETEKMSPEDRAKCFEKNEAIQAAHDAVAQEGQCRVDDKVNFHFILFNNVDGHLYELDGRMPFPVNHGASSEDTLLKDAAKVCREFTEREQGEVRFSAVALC

| Structure (SMILES) | IC50 (UCHL3 [1]) [µM] | IC50 (UCHL3 [2]) [µM] | IC50 [3] [µM] |
| --- | --- | --- | --- |
| N#CN1CCC[C@H]1C(=O)N1CCc2c(-c3cn[nH]c3C(F)(F)F)cccc21 [compound 1, (S)-2-(4-(5-(trifluoromethyl)-1H-pyrazol-4-yl)indoline-1-carbonyl)pyrrolidine-1-carbonitrile] | 6.4 |  |  |
| C#CCCn1cc(-c2cccc3c2CCN3C(=O)[C@@H]2CCCN2C#N)c(C(F)(F)F)n1 [compound 2, (S)-2-(4-(1-(but-3-yn-1-yl)-3-(trifluoromethyl)-1H-pyrazol-4-yl)indoline-1-carbonyl)pyrrolidine-1-carbonitrile] |  | 5.5 | 6.4 |
